From the NIST ThermoML archive (doi:10.1016/j.jct.2009.10.007)
Numbers after ± are expanded uncertainties.

Test: refractive index (Na D-line) (dimensionless); mn = molality of the nth substance listed, in mol/kg
Conditions: 308.15 K, 101 kPa, Liquid, Standard Abbe refractometry

Row | Compound | refractive index (m2 = 0) | refractive index (m1 = 0.034) | refractive index (m1 = 0.0682) | refractive index (m1 = 0.1015) | refractive index (m1 = 0.1424) | refractive index (m1 = 0.1771) | refractive index (m1 = 0.2157) | refractive index (m1 = 0.2524) | refractive index (m1 = 0.2847) | refractive index (m1 = 0.3319) | refractive index (m1 = 0.3674)
1 | O [water] + CCCCn1cc[n+](C)c1.[Br-] | 1.3311 ± 0.0005 | – | – | – | – | – | – | – | – | – | –
2 | O=C([O-])CC(O)(CC(=O)[O-])C(=O)[O-].[Na+].[Na+].[Na+] [trisodium citrate] + O | – | 1.3328 ± 0.0005 | 1.3345 ± 0.0005 | 1.3361 ± 0.0005 | 1.3379 ± 0.0005 | 1.3393 ± 0.0005 | 1.341 ± 0.0005 | 1.3425 ± 0.0005 | 1.3438 ± 0.0005 | 1.3456 ± 0.0005 | 1.3469 ± 0.0005
3 | O [water] + O=C([O-])CC(O)(CC(=O)[O-])C(=O)[O-].[Na+].[Na+].[Na+] | 1.3311 ± 0.0005 | – | – | – | – | – | – | – | – | – | –
